Data set [1] concerns the target D(2) dopamine receptor (Homo sapiens, UniProt P14416). The data set is described as follows: Displacement of [3H]spiperone from human D2 receptor transfected in HEK293 cell membrane measured after 50 mins by competitive radioligand binding analysis. The class given is cell membranes.
The target in data set [2] is D(3) dopamine receptor (Homo sapiens, UniProt P35462). As to the kind of experiment: Displacement of [3H]spiperone from human D3 receptor transfected in HEK293 cell membrane measured after 50 mins by competitive radioligand binding analysis. In kind it is cell membranes. (Loss of bound radioactivity is the signal in a displacement assay; it reports binding, not function.)
Sequence of D(3) dopamine receptor (P35462 whole entry): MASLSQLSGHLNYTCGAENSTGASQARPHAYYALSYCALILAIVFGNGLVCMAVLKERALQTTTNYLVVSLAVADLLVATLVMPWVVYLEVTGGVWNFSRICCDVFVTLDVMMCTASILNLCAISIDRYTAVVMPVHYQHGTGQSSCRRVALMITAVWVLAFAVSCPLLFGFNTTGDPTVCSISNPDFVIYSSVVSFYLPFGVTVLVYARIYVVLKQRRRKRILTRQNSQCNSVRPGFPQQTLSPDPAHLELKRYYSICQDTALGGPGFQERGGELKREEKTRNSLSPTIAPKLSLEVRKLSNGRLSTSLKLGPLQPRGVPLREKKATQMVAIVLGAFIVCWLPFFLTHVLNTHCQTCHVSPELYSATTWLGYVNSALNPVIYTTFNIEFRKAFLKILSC

Data set [3] is filed under the species Homo sapiens. The data set is described as follows: Selectivity ratio of Ki for human D2 receptor transfected in HEK293 cell membrane to Ki for human D3 receptor transfected in HEK293 cell membrane. The class given is cell-based.
Data set [4] has as its system Mus musculus. As to the kind of experiment: Anti-addiction activity in naloxone-induced withdrawal symptoms in morphine-dependent mouse model assessed as inhibition of naloxone-induced body weight loss at 50 mg/kg, ip administered 60 mins prior to naloxone injection and measured after 2 hrs of naloxone injection. In kind it is functional, organism-based. To be noted: time 3.0 hrs.

Data set [5] in a line: Toxicity in naloxone-induced withdrawal symptoms in morphine-dependent mouse model assessed as mortality at 50 mg/kg, ip administered 60 mins prior to naloxone injection. In kind it is organism-based. Particulars: in vivo, 1 h.
Data set [6] is described as follows: Toxicity in naloxone-induced withdrawal symptoms in morphine-dependent mouse model assessed as convulsions at 50 mg/kg, ip administered 60 mins prior to naloxone injection. The class given is organism-based. To be noted: in vivo, 1 h.
Data set [7] in a line: Toxicity in naloxone-induced withdrawal symptoms in morphine-dependent mouse model assessed as slow crawling at 50 mg/kg, ip administered 60 mins prior to naloxone injection. The class given is organism-based. Particulars: in vivo, 1 h.
Data set [8] in a line: Toxicity in naloxone-induced withdrawal symptoms in morphine-dependent mouse model assessed as inability to bounce at 50 mg/kg, ip administered 60 mins prior to naloxone injection. To be noted: in vivo, 1 h. The class given is organism-based.

Active and inactive are the calls of the source. The rule behind the calls is not given here.

Sequence of D(2) dopamine receptor (P14416 whole entry): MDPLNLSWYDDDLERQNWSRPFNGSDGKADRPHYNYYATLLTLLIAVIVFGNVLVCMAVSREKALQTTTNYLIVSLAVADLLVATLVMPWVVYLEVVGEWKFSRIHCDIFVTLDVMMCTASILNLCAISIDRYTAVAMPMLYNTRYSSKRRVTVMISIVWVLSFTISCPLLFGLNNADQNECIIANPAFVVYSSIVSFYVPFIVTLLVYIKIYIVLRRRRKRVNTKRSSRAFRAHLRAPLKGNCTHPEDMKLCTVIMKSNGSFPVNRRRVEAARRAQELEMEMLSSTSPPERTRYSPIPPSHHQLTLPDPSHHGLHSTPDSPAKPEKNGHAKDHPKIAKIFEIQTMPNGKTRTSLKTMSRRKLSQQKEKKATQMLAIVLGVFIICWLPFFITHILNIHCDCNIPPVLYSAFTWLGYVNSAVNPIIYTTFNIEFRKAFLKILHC

Consider `O=C(NCCCCN1CCO[C@@H]2c3ccccc3OC[C@H]21)c1ccco1` (racemic), for which the Ki in data set [1] is 0.853 µM; in data set [2], 0.0117 µM. Besides, the Ratio Ki in data set [3] worked out at 73. For the same compound, the outcome in data set [4] was Active. Further, the Activity result in data set [5] and in data set [6] was “Toxic” each time.

For `COc1ccc2c(c1)[C@H]1OCCN(CCCCNC(=O)c3ccc(Cl)cc3)[C@@H]1CO2` (racemic), the Ki in data set [1] came to 0.967 µM; in data set [2], 0.0129 µM. Besides, the Ratio Ki in data set [3] stood at 75. In data set [5], the Activity result is “Toxic”.

As for `COc1ccc2c(c1)[C@H]1OCCN(CCCCNC(=O)c3cc(OC)c(OC)c(OC)c3)[C@@H]1CO2` (racemic), the Ki came out at 0.962 µM in data set [1] and 0.00123 µM in data set [2]. In data set [3], the Ratio Ki amounted to 782. Moreover, the Activity entry in data set [6], in data set [7] and in data set [8] was “Toxic” each time.

The Ki is the equilibrium dissociation constant of an inhibitor or competing ligand from its target.

These data come from ChEMBL document CHEMBL4823295, “Design, synthesis and preliminary bioactivity evaluation of bitopic benzopyranomorpholine analogues as selective dopamine D3 receptor ligands as anti-drug addiction therapeutic agents” (Bioorg Med Chem Lett, 2021).
